Holding throughout (assay): DTP human tumour cell line panel, 48 h
Test [1] has as its system NCI/ADR-RES ovarian.
Test [2] relates to IGROV1 ovarian.
Test [3] deals with HL-60(TB) leukemia.
The subject of test [4] is SK-OV-3 ovarian.
Test [5] deals with NCI-H522 lung.
Test [6] deals with K-562 leukemia.
The test system of test [7] is ACHN renal.
Test [8] deals with CCRF-CEM leukemia.
For test [9], the system named is OVCAR-3 ovarian.
In test [10] the test system is HOP-62 NSCLC.
Test [11] relates to HT29 colon.
Test [12] relates to MDA-MB-435.
In test [13] the test system is SF-268 CNS.
The subject of test [14] is CAKI-1 renal.
In test [15] the test system is U251 CNS.
For test [16], the system named is HOP-92 NSCLC.
Test [17] relates to T-47D breast.

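Briefly, cells in 96-well plates were exposed to five compound concentrations for 48 h, and endpoints were estimated by linear interpolation. The concentration for full growth arrest is given as TGI.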 Where only a bound is given, the exact number is not on record here.

For the compound `C=CCN(c1cc(O)c2c(c(C)cn2S(=O)(=O)c2ccccc2)c1[N+](=O)[O-])S(C)(=O)=O`, the TGI in test [1], in test [2], in test [3], in test [4], in test [5] and in [6] was above 100 µM each time. For the same compound, the TGI in test [7] is above 100 µM; in test [8], above 100 µM; in test [9], above 100 µM; in [10], above 100 µM; in [11], above 100 µM; in test [12], 74.7 µM. For the same compound, the TGI in [13], in test [14], in test [15], in test [16] and in test [17] was above 100 µM throughout.

For the compound `O=C(OC1OC2COC(=O)c3cc(O)c(O)c(O)c3-c3c(cc(O)c(O)c3O)C(=O)OC3C2OC(=O)[C@@]24CC(=O)[C@@](O)(OC25C(=O)O[C@H]2[C@@H](O)CO[C@@]25O)C2(O)Oc5c(O)c(O)cc(c5C24)C(=O)OC13)c1cc(O)c(O)c(O)c1` (stereo not given in full), the total growth inhibition concentration (TGI) in test [1] was above 100 µM; in test [2], above 100 µM; in [3] it was 92.3 µM; in test [4], above 100 µM; in [5] it was 88 µM; in test [6], above 100 µM. In addition, the TGI in [7] was above 100 µM; in test [8], 87.8 µM; in [9], above 100 µM; in [10] it was above 100 µM; in [11] it was above 100 µM; in [12] it was 33 µM. Moreover, the TGI in test [13] is above 100 µM; in test [14], 32.1 µM; in test [15], above 100 µM; in test [16], above 100 µM; in test [17] it was above 100 µM.

Consider `COc1cc(S(=O)(=O)Nc2nc(-c3ccc(N=Cc4ccccc4O)cc3)cs2)ccc1Cl`, for which the TGI in test [1], in test [2], in test [3], in test [4], in [5] and in [6] was above 100 µM each time. Also, the TGI in test [7], in [8], in test [9], in test [10], in test [11] and in [12] was above 100 µM each time. In addition, the TGI in test [13], in [14], in [15], in test [16] and in test [17] was above 100 µM throughout.

Take `COC(=O)/C(=N\N)C(C(=O)C(=O)Nc1cc(Cl)ccc1Cl)c1nc2ccc([N+](=O)[O-])cc2[nH]c1=O` (stereo not given): the TGI in test [1], in [2], in test [3], in test [4], in [5] and in [6] was above 100 µM each time. The concentration for total growth inhibition (TGI) in test [7], in [8], in [9], in test [10], in [11] and in test [12] was above 100 µM in each case. Besides, the TGI in [13], in [14], in test [15], in [16] and in test [17] was above 100 µM throughout.

Consider `O=C(Nc1ccc(Cl)cc1Cl)C1C(=O)OC2(CCCCC2)OC1=O`, for which the total growth inhibition concentration (TGI) turned out to be 26.4 µM in test [1]; 64.1 µM in [2]; 29.9 µM in test [3]; 32.2 µM in [4]; 52.5 µM in [5]; 43.1 µM in test [6]. For the same compound, the TGI was 33.9 µM in test [7]; 33.2 µM in [8]; 16.1 µM in test [9]; 17.3 µM in test [10]; 25 µM in [11]; 56 µM in test [12]. Also, the concentration for total growth inhibition (TGI) amounted to 50.5 µM in test [13]; 22.5 µM in test [14]; 54.1 µM in test [15]; 28.1 µM in test [16]; 62.2 µM in test [17].

For `NC(CCC(=O)O)C(=O)NC(Cc1ccc(N(CCCl)CCCl)cc1)C(=O)O` (stereo not given), the TGI in test [1], in [2], in test [3], in [4], in test [5] and in test [6] was above 100 µM each time. The TGI in test [7], in test [8], in test [9], in [10], in test [11] and in test [12] was above 100 µM in each case. Also, the TGI in test [13], in test [14], in test [15], in test [16] and in test [17] was above 100 µM each time.

As to `N#CCc1nc(-c2cc3ccccc3oc2=O)cs1`, the TGI in [1], in test [2], in [3], in test [4], in test [5] and in [6] was above 100 µM each time. Besides, the concentration for total growth inhibition (TGI) in test [7], in [8], in test [10], in [11], in test [12] and in test [13] was above 100 µM throughout. The TGI in test [14], in test [15], in test [16] and in [17] was above 100 µM throughout.

`CC(=O)Oc1ccc(-c2nnc(-c3ccc(OC(C)=O)cc3)nn2)cc1`: the TGI in [1] was above 100 µM; in test [2] it was above 100 µM; in test [3] it was 84 µM; in test [4], above 100 µM; in [5] it was above 100 µM; in test [6] it was above 100 µM. The TGI in [7], in test [8], in test [9], in test [10], in test [11] and in test [12] was above 100 µM throughout. Moreover, the concentration for total growth inhibition (TGI) in [13], in [14], in test [15], in test [16] and in [17] was above 100 µM throughout.
